Measurements as given in BindingDB's records for doi:10.1021/jm030472z (Neurocrine Biosciences, 2004).

Experiments:
[1] = molecular target: Gonadotropin-releasing hormone receptor (Macaca mulatta); assay: […] inhibition of monkey Gonadotropin-releasing hormone receptor
[2] = molecular target: Gonadotropin-releasing hormone receptor (Macaca mulatta); assay: […] inhibition of monkey Gonadotropin releasing hormone receptor

Ki [1] [nM]	Ki [2] [nM]	SMILES
550		COc1cccc(-c2c(C)n(Cc3c(F)cccc3F)c(=O)n(C[C@H](C)NCc3ccccc3)c2=O)c1F [3-((S)-2-Benzylamino-propyl)-1-(2,6-difluoro-benzyl)-5-(2-fluoro-3-methoxy-phenyl)-6-methyl-1H-pyrimidine-2,4-dione]
87		COc1cccc(-c2c(C)n(Cc3c(F)cccc3F)c(=O)n(C[C@H](C)NCc3sccc3C)c2=O)c1F [1-(2,6-Difluoro-benzyl)-5-(2-fluoro-3-methoxy-phenyl)-6-methyl-3-{(S)-2-[(3-methyl-thiophen-2-ylmethyl)-amino]-propyl}-1H-pyrimidine-2,4-dione]
	820	COc1cccc(-c2c(C)n(Cc3c(F)cccc3F)c(=O)n(C[C@@H](C)NCc3nccs3)c2=O)c1F [1-(2,6-Difluoro-benzyl)-5-(2-fluoro-3-methoxy-phenyl)-6-methyl-3-{(R)-2-[(thiazol-2-ylmethyl)-amino]-propyl}-1H-pyrimidine-2,4-dione]
